Test results: US20180088120A1, “Elevated PSMA Identifies Lethal Prostate Cancers” (Cornell University, priority 2012, published 2018)

System: prostate cancer lesions
Test: FDG PET imaging of prostate cancer patients (comparison)
Type: in vivo, human
From the text: These panels show CT scans (left column) and PET scans (right column). […] However, this is not observed in the Fludeoxyglucose (^18F) PET (lower right panel).
FIGS. 7-9 show CT and PET/CT scan taken from the same patient as from FIG. 6.

## OC[C@H]1OC(O)[C@H]([18F])[C@@H](O)[C@@H]1O (some centres unmarked) [Fludeoxyglucose (^18F)]
Patient with metastatic prostate cancer, FIG. 5
  PET uptake in bone metastasis, left iliac bone: not observed
Patient with prostate carcinoma, FIG. 6
  Uptake in skeletal lesions not clearly seen on bone scan: non-FDG avid
